Source: patent US20240408170A1, “COMPOSITION FOR DECOMPOSITION OF TRYPSIN OR TMPRSS2” (Riken, priority 2021, published 2024)

Key:
recombinant mouse PRSS2 = biological target: T1, recombinant mouse PRSS2 (Mus musculus, UniProt P07146); assay: Trypsin decomposition in vitro by bacteria (western blot); format: biochemical; details: bacteria or culture supernatant incubated with recombinant mouse trypsin
T1 construct: purchased Sino Biological, Inc. 50383-M08H
T1 sequence (P07146 24-246): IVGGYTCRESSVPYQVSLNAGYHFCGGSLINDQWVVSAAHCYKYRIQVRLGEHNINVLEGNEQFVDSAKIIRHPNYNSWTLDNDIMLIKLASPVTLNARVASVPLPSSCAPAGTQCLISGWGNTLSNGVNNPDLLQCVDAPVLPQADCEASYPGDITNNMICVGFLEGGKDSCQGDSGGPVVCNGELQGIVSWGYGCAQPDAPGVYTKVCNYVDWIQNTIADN
Method: (§1) Mouse faecal samples were suspended and diluted 50-fold with phosphate buffered saline (PBS) to which a protease inhibitor cocktail (Roche) was added. Subsequently, the suspended sample was centrifuged at 15,000×g for 10 minutes at 4° C., and the supernatant was subjected to western blot. Mouse pancreatic tissue was rapidly frozen in liquid nitrogen. Proteins were extracted by TRIzol Reagent (Thermo Fisher Scientific K.K.), and the final protein concentration was adjusted to 4 μg/μL. For SDS-PAGE and blotting, Novex (registered trademark) NuPAGE (registered trademark) SDS-PAGE Gel system (Thermo Fisher Scientific K.K.) and iBlot™ 2 Dry Blotting System (Thermo Fisher Scientific K.K.) were used according to the manufacturer's instructions.
The bacteria cultured overnight were incubated with recombinant mouse trypsin (final concentration: 1 μg/mL) for 1 hour or with human trypsin (final concentration: 20 μg/mL) for 4 hours. Recombinant trypsin isoforms used were as follows: recombinant mouse PRSS2 (50383-M08H, Sino Biological, Inc.), recombinant human PRSS1 (LS-G135640), recombinant human PRSS2 (LS-G20167), and recombinant human PRSS3 (His-tag) (NBP2-52220).
In some experiments, recombinant mouse PRSS2 was first treated with one of the following trypsin inhibitors for 30 minutes before incubation with a P. clara culture solution. AEBSF (Sigma-Aldrich, final concentration: 2 mM), Leupeptin (Sigma-Aldrich, final concentration: 100 μM), and TLCK (Abcam plc., final concentration: 100 μM).
In some experiments, P. clara was cultured overnight in the presence of Tunicamycin (Sigma-Aldrich, final concentration: 10 μg/mL), 2-Fluoro-L-fucose (Cayman Chemical Company, final concentration: 250 μM), or the corresponding DMSO control, before incubation with recombinant mouse PRSS2.
In the experiment of evaluating the effect of Ca^2+, P. clara was cultured in a low Ca^2+ mGAM medium supplemented with or without 1 mM of Ca^2+, before incubation with recombinant mouse PRSS2. In the experiment in which the supernatant of P. clara was used, P. clara cultured overnight was filtered through a sterilization filter unit formed using a PVDF film having a pore size of 0.22 μm.

IgA heavy chain = assay: Western blot of faeces of GF mice inoculated with P. clara strain together with 2-mix; format: in vivo, mouse; details: compared to Δ00502 or Δ00509
Method: as §1
(§2) The antibodies used are as follows. […]

TMPRSS2 = biological target: T2, TMPRSS2 (Mus musculus, UniProt Q9JIQ8); assay: as above; format: in vivo
T2 construct: from tissue; host or cells: faeces of gnotobiotic mice
Method: as §1, §2

[1] = system: mouse hepatitis virus (MHV); assay: Mouse hepatitis virus (MHV) infection of gnotobiotic mice; format: in vivo; details: with 2-mix
Method: MHV-2 was provided by Makoto UJIKE (Nippon Veterinary and Life Science University). Five-week-old GF C57BL/6N male mice were obtained from CLEA Japan, Inc. or Sankyo Labo Service Corporation, and were separately bred in stainless steel isolators. 200 μL of 2-mix (B. uniformis and P. merdae)+P. clara (WT) or 2-mix+P. clara (Δ00502) was orally administered to the GF mice. Two weeks after inoculation, the mice were orally infected with 4.5×10^6 PFU of MHV-2, and the survival rate was observed every day for 10 days.
The liver and brain were collected on 4 or 5 days after infection to measure virus titers, and homogenization was performed with DNA/RNA Shield (Zymo Research Corporation). Viral RNA was extracted using a Quick-RNA Viral Kit (Zymo Research Corporation) according to the manufacturer's instructions, and cDNA was synthesized using ReverTra Ace (TOYOBO CO., LTD.) and a random primer (TOYOBO CO., LTD.).
Quantitative real-time PCR was performed with LightCycler 480 System (Roche) using THUNDERBIRD SYBR qPCR Mix (TOYOBO CO., LTD.) to amplify an orf1a gene. The relative amount of MHV was obtained from a standard curve created from a serial diluent solution of MHV genomic cDNA. The base sequences of the primers used are as follows.

T2 sequence (Q9JIQ8 254-490 limits assumed): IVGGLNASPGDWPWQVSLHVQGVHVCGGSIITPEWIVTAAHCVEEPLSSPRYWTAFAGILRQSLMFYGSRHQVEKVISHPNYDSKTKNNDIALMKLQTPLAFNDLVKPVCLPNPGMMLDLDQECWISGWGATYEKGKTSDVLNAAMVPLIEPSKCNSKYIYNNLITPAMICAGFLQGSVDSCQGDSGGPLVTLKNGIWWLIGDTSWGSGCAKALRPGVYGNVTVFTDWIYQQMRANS

Paraprevotella clara [JCM 14859]
decomposition of rmPRSS2 (western blot) (recombinant mouse PRSS2): effect of reducing trypsin | IgA heavy chain in the faeces (IgA heavy chain): larger amount | amount of TMPRSS2 in the faeces (TMPRSS2): reduced | liver pathology (hematoxylin and eosin) [1]: protected from the necrotizing liver pathology | viral titers of MHV in liver and brain [1]: significantly prevented the spread of the virus | survival after MHV infection ([1]; oral MHV 14 days after inoculation): prolonged survival
